Consider two molecules from patent US8314082B2, “Stilbene derivatives for ADP-ribosyl cyclase inhibitors” (Industrial Cooperation Foundation Chonbuk National …, priority 2006, dated 2012).

Like-named read-outs stand apart in the source and are kept apart here.

What all share (assay type): cell-based
Assay [1] concerns Ang II induced [Ca^2+]i increase in murine mesangial cells (MMCs). The assay can be described thus: Ang II-mediated [Ca2+]i increase in MMCs. The following applies: Mus musculus, Mesangial cell. The method, then:
Changes in [Ca^2+]i in MMCs were determined as described previously [Kim et al., Exp. Mol. Med. (2006)38:535-45]. Briefly, MMCs cultured on confocal dishes for 48 h at a concentration of 10^4 cells/dish were washed with Hank's balanced salt solution (HBSS) (2 mM CaCl2, 145 mM NaCl, 5 mM KCl, 1 mM MgCl2, 5 mM D-glucose, and 20 mM HEPES, pH 7.3) and then loaded with […] Fluo 3-AM (Molecular Probe, Eugene, Oreg.). Changes in Ca^2+ fluorescence were determined at 488 nm/530 nm (excitation/emission) by air-cooled argon laser system. [Ca^2+]i was calculated using a Kd of 325 nM for Fluo 3-AM by the method of Tsien et al. (1982).

Assay [2] has as its system Ang II induced cADPR production in murine mesangial cells (MMCs). In words: Ang II-induced intracellular cADPR concentration in MMCs. The following applies: for IC50: Mus musculus, Mesangial cell, cADPR production induced by 150 nM Ang II, 90 s, MMCs, read-out: IC50([CADPR]i, uM) (means ± SEM). The method, then: [cADPR]i was measured using a cyclic enzymatic assay as described previously [Graeff et al., Biochem. J. (2002)361:379-84]. Aplysia californica ADPR-cyclase was purified from […] according to the method described [Lee et al., Cell Regul. (1991)2:203-9]. Briefly, MMCs were treated with 0.3 ml of 0.6 M perchloric acid under sonication after Ang II treatment. Precipitates were removed by centrifugation at 20,000×g for 10 min. Perchloric acid was removed by mixing the aqueous sample with a solution containing 3 volumes of 1,1,2-trichlorotrifluoroethane to 1 volume of tri-n-octlyamine. After centrifugation for 10 min at 1500×g, the aqueous layer was collected and neutralized with 20 mM sodium phosphate (pH 8). To remove all contaminating nucleotides, the samples were incubated with the following hydrolytic enzymes overnight at 37° C.: 0.44 unit/ml nucleotide pyrophosphatase, 12.5 units/ml alkaline phosphatase, 0.0625 unit/ml NADase, and 2.5 mM MgCl2 in 20 mM sodium phosphate buffer (pH 8.0). Enzymes were removed by filtration using Centricon-3 filters. To convert cADPR to NAD^+, the samples (0.1 ml/tube) were incubated with […] of a cycling reagent containing 0.3 mg/ml Aplysia ADPR-cyclase, 30 mM nicotinamide, and 100 mM sodium phosphate (pH 8) at room temperature for 30 min. The samples were further incubated with the cycling reagent (0.1 ml) containing 2% ethanol, […] alcohol dehydrogenase, 20 mM resazurin, 10 mg/ml diaphorase, 10 mM riboflavin 5′-phosphate, 10 mM nicotinamide, 0.1 mg/ml BSA, and 100 mM sodium phosphate (pH 8.0) for 2 h at room temperature. An increase in the resorufin fluorescence was measured at 544 nm excitation and 590 nm emission using a fluorescence plate reader (Molecular Devices Corp., Spectra-Max GEMINI). Various known concentrations of cADPR were also included in the cycling reaction to generate a standard curve. […] Production of cADPR as well as later sustained Ca^2+ signal in response to Ang II was inhibited with different efficacy by these small molecules (Table 1). […] The order of IC50 was 4,4′-DAHB>resveratrol>azobenzene=piceatannol>2,2′-DAHB.

Assay [3] concerns OKT3 induced [Ca^2+]i increase in Jurkat T cells. The assay can be described thus: OKT3-mediated [Ca2+]i increase in Jurkat T cells. The following applies: pretreatment, even at 10 mM; OKT3 5 mg/ml. The method, then: Changes in [Ca^2+]i in Jurkat T cells were determined as described above examples 1.
The test system of assay [4] is OKT3 induced cADPR production in Jurkat T cells. In words: OKT3-induced [cADPR]i in Jurkat T cells. The following applies: pretreatment. The method, then:
[cADPR]i was measured using a cyclic enzymatic assay as described previously [Graeff et al., Biochem. J. (2002)361:379-84]. Aplysia californica ADPR-cyclase was purified from […] according to the method described [Lee et al., Cell Regul. (1991)2:203-9]. Briefly, MMCs were treated with 0.3 ml of 0.6 M perchloric acid under sonication after Ang II treatment. Precipitates were removed by centrifugation at 20,000×g for 10 min. […] After centrifugation for 10 min at 1500×g, the aqueous layer was collected and neutralized with 20 mM sodium phosphate (pH 8). To remove all contaminating nucleotides, the samples were incubated with the following hydrolytic enzymes overnight at 37° C.: 0.44 unit/ml nucleotide pyrophosphatase, 12.5 units/ml alkaline phosphatase, 0.0625 unit/ml NADase, and 2.5 mM MgCl2 in 20 mM sodium phosphate buffer (pH 8.0). Enzymes were removed by filtration using Centricon-3 filters. […] An increase in the resorufin fluorescence was measured at 544 nm excitation and 590 nm emission using a fluorescence plate reader (Molecular Devices Corp., Spectra-Max GEMINI). […] Measurement of [cADPR]i in Jurkat T cells were determined as described above examples 5.

Setting [5] is: later sustained Ca2+ signal induced by 150 nM Ang II, 300 s, read-out: IC50([Ca^2+]i, uM) (means ± SEM).

Usually IC50 stands for the point on the concentration scale where inhibition reaches its midpoint. Regarding `Oc1ccccc1/N=N/c1ccccc1O` [2,2′-DHAB, 2,2′-Dihydroxyazobenzene], the IC50 in assay [1] (setting [5]) came out at 15 ± 1.5 µM; in assay [2] it was 16.5 ± 2.5 µM. The “effect on OKT3-mediated Ca2+ rise” value in assay [3] is reported as “did not show any effects”. The “effect on OKT3-mediated [cADPR]i” value in assay [4] is on record as “didn't inhibited”.
`Oc1ccc(N=Nc2ccc(O)cc2)cc1` [4,4′-DHAB, 4,4′-Dihydroxyazobenzene]: the IC50 was approximately 0.0025 µM in assay [1] (Ang II, pretreatment, read-out: IC50 for block of the sustained Ca2+ signal); 0.0025 ± 0.0002 µM in assay [1] (setting [5]); 0.0025 ± 0.0003 µM in assay [2]. In assay [2] (MMC), the “concentration at which cADPR production stimulated by Ang II is inhibited” value is given as 5 nM. For the same molecule, the “effect on OKT3-mediated Ca2+ rise” value in assay [3] is listed as “did not show any effects”. Moreover, in assay [4], the “effect on OKT3-mediated [cADPR]i” value is on record as “didn't inhibited”.
